Laboratory results as given in patent US20220153734A1, “Pyrazolopyridine Compounds For IRE1 Inhibition” (Optikira, LLC, priority 2019, published 2022).

Legend:
[1] = tested on: ARPE-19 cells stably expressing XBP1 (a.a. 1-376); assay: Cellular XBP1 splicing assay (NanoLuc luciferase, thapsigargin); format: cell-based; settings: thapsigargin 150 nM
Protocol: Cellular XBP1 Splicing Assay
ARPE-19 cells stably expressing XBP1 (a.a. 1-376) with nano-luciferase gene sequence linked so it is in frame when XBP1 is spliced, were cultured in F12 media, 10% FBS, 0.044% sodium bicarbonate, 150 μg/ml hygromycin B and seeded for assays at 5,000 cells in 384 well plates in culture media without hygromycin B and incubated at 37° C./5% CO2. After overnight incubation test compounds were added to the cell plate in a 10-point ½ log dilution series in duplicate (final DMSO concentration 0.117%). After further incubation of 30 minutes thapsigargin was added (final concentration 150 nM) and then another 4 hour incubation. A NanoLuc luciferase assay (Promega) was used according to the manufacturer's instructions to detect the luciferase and luminescence measured on a luminometer (EnVision, PerkinElmer). IC50 values calculated by fitting a sigmoidal curve to percent inhibition of control of compound concentration.

IRE1α = target: T1, IRE1α (Homo sapiens, UniProt O75460); assay: Biochemical assay: inhibition of RNase activity of IRE1α; settings: enzyme 0.325 nM, substrate 100 nM, 20 minutes
T1 construct: purchased Signal Chem E31-11G
T1 sequence (O75460 468-977 limits assumed): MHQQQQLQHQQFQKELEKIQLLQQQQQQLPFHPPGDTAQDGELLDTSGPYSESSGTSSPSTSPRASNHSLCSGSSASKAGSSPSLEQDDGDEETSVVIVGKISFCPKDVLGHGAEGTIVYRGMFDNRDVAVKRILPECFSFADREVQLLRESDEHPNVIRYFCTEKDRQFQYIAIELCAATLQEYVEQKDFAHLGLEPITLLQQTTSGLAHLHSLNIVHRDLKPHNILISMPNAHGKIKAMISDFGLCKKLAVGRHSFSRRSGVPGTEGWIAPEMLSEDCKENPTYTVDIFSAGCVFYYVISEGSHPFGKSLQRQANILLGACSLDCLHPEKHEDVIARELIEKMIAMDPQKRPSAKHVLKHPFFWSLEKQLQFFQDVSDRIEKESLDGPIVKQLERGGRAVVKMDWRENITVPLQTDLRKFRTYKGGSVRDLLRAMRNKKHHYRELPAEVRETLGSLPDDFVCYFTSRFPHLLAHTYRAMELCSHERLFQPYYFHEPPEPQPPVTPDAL
Protocol: Biochemical Assay: Inhibition of RNase Activity of IRE1α
The RNase reactions were performed in 384 well black ProxiPlate-384 Plus plates (PERKIN Elmer) using 50 mM Tris assay buffer with 0.5 mM MgCl2, 10 mM KCl, 0.03% Tween, 2 mM DTT and 1% DMSO. Test compounds were prepared on the day of assay and dispensed using D300 digital dispenser as a 10-point ½ log dilution series in duplicate, normalized to a final DMSO concentration of […]. Test compounds were pre-incubated for 30 min at room temperature with IRE1α kinase (E31-11G from Signal Chem) in 2.5 μL of assay buffer. Then 2.5 μl of assay buffer containing substrate (5′ Alexa Fluor 647-rCrArU rGrUrC rCrGrC rArGrC rGrCrArUrG-Iowa Black RQ quencher 3′) added, giving a final concentration of enzyme of 0.325 nM and of substrate of 100 nM. After 20 minutes incubation at room temperature the reactions were stopped by added 5 μL of 5M urea, incubated at room temperature for 10 minutes and fluorescence measured on a plate reader (EnVision, PerkinElmer). IC50 values calculated by fitting a sigmoidal curve to percent inhibition of control versus compound concentration.

Row | IC50 ([1]; 4 hour) | IC50 (IRE1α) | IC50 ([1]; Homo sapiens, ARPE-19, 4 h) | SMILES
1 | 30 nM | 2.4 nM | – | CC(C)n1nc(-c2ccc(NS(=O)(=O)Cc3ccccc3F)c(F)c2)c2c(N)ncc(C3=CCC(NC4COC4)CC3)c21 (single isomer, unassigned) [Compound B1, N-(4-(4-amino-1-isopropyl-7-(4-(oxetan-3-ylamino)cyclohex-1-en-1-yl)-1H-pyrazolo[4,3-c]pyridin-3-yl)-2-fluorophenyl)-1-(2-fluorophenyl)methanesulfonamide]
2 | – | 17 nM | 110 nM | COCCN[C@H]1CC[C@H](c2cnc(N)c3c(-c4cc(F)c(NS(=O)(=O)c5ccc(F)cc5)cc4F)nn(C(C)C)c32)CC1 [Compound A32, N-(4-(4-amino-1-isopropyl-7-((1r,4r)-4-((2-methoxyethyl)amino)cyclohexyl)-1H-pyrazolo[4,3-c]pyridin-3-yl)-2,5-difluorophenyl)-4-fluorobenzenesulfonamide]
3 | 500 nM | 34 nM | – | CC(C)n1nc(-c2cc(F)c(NS(=O)(=O)c3ccccc3Cl)cc2F)c2c(N)ncc(C3=CCC(NC4COC4)CC3)c21 (single isomer, unassigned) [Compound B11, N-(4-(4-amino-1-isopropyl-7-(4-(oxetan-3-ylamino)cyclohex-1-en-1-yl)-1H-pyrazolo[4,3-c]pyridin-3-yl)-2,5-difluorophenyl)-2-chlorobenzenesulfonamide]
4 | – | – | 44 nM | COCCN[C@H]1CC[C@H](c2cnc(N)c3c(-c4cc(F)c(NS(=O)(=O)c5cc(OC(F)(F)F)ccc5F)cc4F)nn(C(C)C)c32)CC1 [Compound A59, N-(4-(4-amino-1-isopropyl-7-((1r,4r)-4-((2-methoxyethyl)amino)cyclohexyl)-1H-pyrazolo[4,3-c]pyridin-3-yl)-2,5-difluorophenyl)-2-fluoro-5-(trifluoromethoxy)benzenesulfonamide]
5 | 20 nM | – | – | CC(C)n1nc(-c2ccc(NS(=O)(=O)c3ccccc3Cl)c(F)c2)c2c(N)ncc(C3=CCC(NC4COC4)CC3)c21 (single isomer, unassigned) [Compound B57, N-(4-(4-amino-1-isopropyl-7-(4-(oxetan-3-ylamino)cyclohex-1-en-1-yl)-1H-pyrazolo[4,3-c]pyridin-3-yl)-2-fluorophenyl)-2-chlorobenzenesulfonamide]
6 | – | 47 nM | 130 nM | CCn1nc(-c2cc(F)c(NS(=O)(=O)c3ccccc3Cl)cc2F)c2c(N)ncc(C3=CCC(NC4COC4)CC3)c21 (stereo not drawn) [Compound B31, N-(4-(4-amino-1-ethyl-7-(4-(oxetan-3-ylamino)cyclohex-1-en-1-yl)-1H-pyrazolo[4,3-c]pyridin-3-yl)-2,5-difluorophenyl)-2-chlorobenzenesulfonamide]
7 | – | 8.9 nM | 15 nM | COCCN[C@H]1CC[C@H](c2cnc(N)c3c(-c4cc(F)c(NS(=O)(=O)c5cccc(OC)c5)cc4F)nn(C(C)C)c32)CC1 [Compound A11, N-(4-(4-amino-1-isopropyl-7-((1r,4r)-4-((2-methoxyethyl)amino)cyclohexyl)-1H-pyrazolo[4,3-c]pyridin-3-yl)-2,5-difluorophenyl)-3-methoxybenzenesulfonamide]
8 | – | 12 nM | 37 nM | COCCN[C@H]1CC[C@H](c2cnc(N)c3c(-c4ccc(NS(=O)(=O)c5ccccc5F)cc4F)nn(C(C)C)c32)CC1 [Compound A18]
9 | – | 1.2 nM | 6.8 nM | COCC(C)NC1CC=C(c2cnc(N)c3c(-c4ccc(NS(=O)(=O)Cc5ccccc5Cl)c(F)c4)nn(C(C)C)c23)CC1 (single isomer, unassigned) [Compound B4, N-(4-(4-amino-1-isopropyl-7-(4-((1-methoxypropan-2-yl)amino)cyclohex-1-en-1-yl)-1H-pyrazolo[4,3-c]pyridin-3-yl)-2-fluorophenyl)-1-(2-chlorophenyl)methanesulfonamide]
10 | – | 1.8 nM | 15 nM | CC(C)n1nc(-c2cc(F)c(NS(=O)(=O)Cc3ccccc3F)cc2F)c2c(N)ncc([C@H]3CC[C@H](N(C)C)CC3)c21 [Compound A22, N-(4-(4-amino-7-((1r,4r)-4-(dimethylamino)cyclohexyl)-1-isopropyl-1H-pyrazolo[4,3-c]pyridin-3-yl)-2,5-difluorophenyl)-1-(2-fluorophenyl)methanesulfonamide]
11 | 25 nM | 5 nM | – | CC(C)n1nc(-c2ccc(NS(=O)(=O)c3ccccc3Cl)c(F)c2)c2c(N)ncc(C3=CCC(NC4CC(F)(F)C4)CC3)c21 (single isomer, unassigned) [Compound B50]
12 | – | – | 13 nM | CC(F)CN[C@H]1CC[C@H](c2cnc(N)c3c(-c4cc(F)c(NS(=O)(=O)c5ccccc5F)cc4F)nn(C(C)C)c32)CC1 (stereo partly drawn) [Compound A63, N-(4-(4-amino-7-((1r,4r)-4-((2-fluoropropyl)amino)cyclohexyl)-1-isopropyl-1H-pyrazolo[4,3-c]pyridin-3-yl)-2,5-difluorophenyl)-2-fluorobenzenesulfonamide]
13 | 38 nM | – | – | Nc1ncc(C2=CCC(NC3COC3)CC2)c2c1c(-c1ccc(NS(=O)(=O)Cc3ccccc3F)c(F)c1)nn2C1CC1 (single isomer, unassigned) [Compound B20, N-(4-(4-amino-1-cyclopropyl-7-(4-(oxetan-3-ylamino)cyclohex-1-en-1-yl)-1H-pyrazolo[4,3-c]pyridin-3-yl)-2-fluorophenyl)-1-(2-fluorophenyl)methanesulfonamide]
14 | – | – | 6 nM | CCc1ccc(Cl)c(S(=O)(=O)Nc2cc(F)c(-c3nn(C(C)C)c4c3c(N)ncc4[C@H]3CC[C@H](NCCOC)CC3)cc2F)c1 [Compound A62, N-(4-(4-amino-1-isopropyl-7-((1r,4r)-4-((2-methoxyethyl)amino)cyclohexyl)-1H-pyrazolo[4,3-c]pyridin-3-yl)-2,5-difluorophenyl)-2chloro-5-ethylbenzenesulfonamide]
15 | – | – | 5 nM | COCCN[C@H]1CC[C@H](c2cnc(N)c3c(-c4cc(F)c(NS(=O)(=O)c5cc(Cl)ccc5Cl)cc4F)nn(C(C)C)c32)CC1 [Compound A61, N-(4-(4-amino-1-isopropyl-7-((1r,4r)-4-((2-methoxyethyl)amino)cyclohexyl)-1H-pyrazolo[4,3-c]pyridin-3-yl)-2,5-difluorophenyl)-2,5-dichlorobenzenesulfonamide]
16 | – | – | 49 nM | COCCN[C@H]1CC[C@H](c2cnc(N)c3c(-c4cc(F)c(NS(=O)(=O)c5cccc(F)c5)cc4F)nn(C(C)C)c32)CC1 [Compound A33, N-(4-(4-amino-1-isopropyl-7-((1r,4r)-4-((2-methoxyethyl)amino)cyclohexyl)-1H-pyrazolo[4,3-c]pyridin-3-yl)-2,5-difluorophenyl)-3-fluorobenzenesulfonamide]
17 | – | – | 16 nM | CCCOc1ccc(F)c(S(=O)(=O)Nc2cc(F)c(-c3nn(C(C)C)c4c3c(N)ncc4[C@H]3CC[C@H](NCCOC)CC3)cc2F)c1 [Compound A60, N-(4-(4-amino-1-isopropyl-7-((1r,4r)-4-((2-methoxyethyl)amino)cyclohexyl)-1H-pyrazolo[4,3-c]pyridin-3-yl)-2,5-difluorophenyl)-2-fluoro-5-propoxybenzenesulfonamide]
18 | 170 nM | – | – | CCn1nc(-c2ccc(NS(=O)(=O)Cc3ccccc3Cl)cc2)c2c(N)ncc(C3=CCC(NC4COC4)CC3)c21 (single isomer, unassigned) [Compound B25, N-(4-(4-amino-1-ethyl-7-(4-(oxetan-3-ylamino)cyclohex-1-en-1-yl)-1H-pyrazolo[4,3-c]pyridin-3-yl)phenyl)-1-(2-chlorophenyl)methanesulfonamide]
19 | 200 nM | – | – | CC(C)n1nc(-c2ccc(NS(=O)(=O)c3ccccc3Cl)c(F)c2)c2c(N)ncc(C3=CCC(NC4COC4)CC3)c21 (single isomer, unassigned) [Compound B56, N-(4-(4-amino-1-isopropyl-7-(4-(oxetan-3-ylamino)cyclohex-1-en-1-yl)-1H-pyrazolo[4,3-c]pyridin-3-yl)-2-fluorophenyl)-2-chlorobenzenesulfonamide]
20 | 11 nM | – | – | Nc1ncc(C2=CCC(NC3COC3)CC2)c2c1c(-c1ccc(NS(=O)(=O)Cc3ccccc3F)c(F)c1)nn2C1CC1 (single isomer, unassigned) [Compound B21, N-(4-(4-amino-1-cyclopropyl-7-(4-(oxetan-3-ylamino)cyclohex-1-en-1-yl)-1H-pyrazolo[4,3-c]pyridin-3-yl)-2-fluorophenyl)-1-(2-fluorophenyl)methanesulfonamide]
21 | 220 nM | – | – | CCn1nc(-c2ccc(NS(=O)(=O)c3cc(Cl)ccc3F)c(F)c2)c2c(N)ncc(C3=CCC(NC4COC4)CC3)c21 (single isomer, unassigned) [Compound B39, N-(4-(4-amino-1-ethyl-7-(4-(oxetan-3-ylamino)cyclohex-1-en-1-yl)-1H-pyrazolo[4,3-c]pyridin-3-yl)-2-fluorophenyl)-5-chloro-2-fluorobenzenesulfonamide]
